We go through nine compounds from PubChem BioAssay (NCI).

“And” between values parts separate entries of the source, which are not always exact repeats. Identical values can stand only once.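 Values below derive from 48-hour exposures of cells grown in 96-well plates, with endpoints linearly interpolated between the two concentrations bracketing the appropriate inhibition level. GI50 marks 50% less growth. TGI marks complete inhibition of growth.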

Test systems include A549 NSCLC; HT29 colon; EKVX NSCLC; NCI-H460 lung; U251 CNS; CAKI-1 renal; MALME-3M melanoma; SF-295 CNS; CCRF-CEM leukemia; ACHN renal.
What all share (assay): NCI anticancer screen, dose series, 48 h

Regarding `CC/C=C\C[C@H](O)C/C=C1/C(=O)C(Cl)=C[C@@H]1C/C=C\CCCC(=O)OC`, the GI50 with A549 NSCLC is 2.64 µM; in the experiment on HT29 colon it was 0.406 µM; in the experiment with EKVX NSCLC, 1.03 µM; in the experiment on NCI-H460 lung, 0.558 µM; in the experiment on U251 CNS, 0.339 µM; in the experiment with CAKI-1 renal, 0.523 µM. Moreover, the GI50 in the experiment with MALME-3M melanoma was 0.451 µM; in the experiment on SF-295 CNS, 2.4 µM; with CCRF-CEM leukemia it was 0.412 µM; in the experiment with ACHN renal, 0.378 µM. Further, the TGI with A549 NSCLC was determined as 7.52 µM; in the experiment on HT29 colon it was 1.07 µM; with EKVX NSCLC it was 3.51 µM; in the experiment on NCI-H460 lung, 2.22 µM; in the experiment on U251 CNS it was 1.39 µM; with CAKI-1 renal, 1.89 µM. Moreover, the TGI was found to be 1.23 µM in the experiment with MALME-3M melanoma, 5.83 µM in the experiment with SF-295 CNS, 1.73 µM in the experiment with CCRF-CEM leukemia and 0.849 µM with ACHN renal.
Consider `COc1ccccc1/C=N\N/C(N)=N\N=C\c1ccccc1OC`, for which the GI50 was 1.55 µM in the experiment on A549 NSCLC; 0.382 µM in the experiment on HT29 colon; 0.574 µM with EKVX NSCLC; 0.348 µM with NCI-H460 lung; 1.02 µM with U251 CNS; 0.207 µM with CAKI-1 renal. Moreover, the GI50 is 0.237 µM in the experiment with MALME-3M melanoma, less than 0.0478 µM in the experiment on SF-295 CNS, 0.323 µM in the experiment on CCRF-CEM leukemia and 2.82 µM with ACHN renal. The TGI with A549 NSCLC is greater than 100 µM; in the experiment on HT29 colon, greater than 55.8 µM; in the experiment with EKVX NSCLC, 14.3 µM; with NCI-H460 lung it was 4.37 µM; in the experiment with U251 CNS, greater than 39.9 µM; with CAKI-1 renal, 4.11 µM. The TGI in the experiment with MALME-3M melanoma is 5.2 µM; with SF-295 CNS, 0.163 µM; in the experiment with CCRF-CEM leukemia, 2.08 µM; in the experiment on ACHN renal it was greater than 53.1 µM.
As to `N#CN/C(N)=N/CO`, the TGI is greater than 100 µM in the experiment with A549 NSCLC; greater than 100 µM in the experiment with HT29 colon; greater than 100 µM in the experiment with EKVX NSCLC; greater than 100 µM with NCI-H460 lung; greater than 90.2 µM with U251 CNS; greater than 100 µM with CAKI-1 renal. Besides, the TGI in the experiment on MALME-3M melanoma, with SF-295 CNS, in the experiment on CCRF-CEM leukemia and with ACHN renal was greater than 100 µM throughout.
In the case of `O=C(Nc1ccc(Nc2ccncc2)cc1)c1ccc([N+](=O)[O-])cc1`, the GI50 is 10 µM in the experiment on A549 NSCLC; 3.61 µM in the experiment with HT29 colon; 11.2 µM in the experiment with EKVX NSCLC; 4.24 µM in the experiment with NCI-H460 lung; 2.49 µM in the experiment on U251 CNS; 6.02 µM with CAKI-1 renal. Besides, the GI50 in the experiment on MALME-3M melanoma is 4.89 µM; in the experiment on SF-295 CNS, 3.79 µM; in the experiment on CCRF-CEM leukemia, 3.37 µM; in the experiment with ACHN renal, 4.62 µM. For the same compound, the TGI in the experiment on A549 NSCLC was 33.1 µM; with HT29 colon, 16.5 µM; with EKVX NSCLC, greater than 61.2 µM; in the experiment with NCI-H460 lung it was 16.5 µM; with U251 CNS, 7.12 µM; in the experiment on CAKI-1 renal, 19.3 µM. Besides, the TGI in the experiment with MALME-3M melanoma came out at 17.3 µM; in the experiment with SF-295 CNS, 10.3 µM; in the experiment on ACHN renal it was 19.7 µM.
With `CC1(C)S[C@@H]2[C@H](NC(=O)C3(N)CCCCC3)C(=O)N2[C@H]1C(=O)O`, the TGI with A549 NSCLC, with HT29 colon, in the experiment on EKVX NSCLC, in the experiment on NCI-H460 lung, with U251 CNS and in the experiment on CAKI-1 renal was greater than 100 µM in each case. For the same compound, the TGI in the experiment with MALME-3M melanoma, in the experiment on SF-295 CNS, in the experiment on CCRF-CEM leukemia and in the experiment on ACHN renal was greater than 100 µM each time.
For `CC(=O)CCn1ncc(Cl)c(Cl)c1=O`, the TGI in the experiment with A549 NSCLC stood at 44.6 µM; in the experiment with HT29 colon, 34.1 µM; with EKVX NSCLC it was 36.1 µM; with NCI-H460 lung, 42.2 µM; with CAKI-1 renal it was 3.66 µM; in the experiment on MALME-3M melanoma, 36.2 µM. In addition, the figures for the TGI with SF-295 CNS, with CCRF-CEM leukemia and in the experiment with ACHN renal were 33.6 µM, greater than 100 µM and 30.9 µM, respectively.
As for `CCCCOC(=O)CNC(=O)OC/C=C/C#CC#C/C=C/COC(=O)NCC(=O)OCCCC`, the GI50 in the experiment with A549 NSCLC, in the experiment on HT29 colon, with EKVX NSCLC, with NCI-H460 lung, with U251 CNS and in the experiment with CAKI-1 renal was greater than 100 µM in each case. The GI50 in the experiment on MALME-3M melanoma, in the experiment on SF-295 CNS, in the experiment on CCRF-CEM leukemia and in the experiment on ACHN renal was greater than 100 µM in each case. For the same compound, the TGI in the experiment on A549 NSCLC, in the experiment on HT29 colon, in the experiment on EKVX NSCLC, with NCI-H460 lung, in the experiment with U251 CNS and with CAKI-1 renal was greater than 100 µM each time. Also, the TGI with MALME-3M melanoma, in the experiment with SF-295 CNS, with CCRF-CEM leukemia and in the experiment with ACHN renal was greater than 100 µM throughout.
In the case of `COC(=O)C[C@](O)(CCCC(C)(C)O)C(=O)O[C@@H]1C(OC)=C[C@]23CCCN2CCc2cc4c(cc2[C@H]13)OCO4`, the GI50 in the experiment on A549 NSCLC is 0.0953 µM and 0.0238 µM; in the experiment on HT29 colon, 0.0183 µM; in the experiment on EKVX NSCLC, 0.0486 µM; in the experiment on NCI-H460 lung it was 0.016 µM and < 0.01 µM; in the experiment with U251 CNS it was 0.0223 µM; in the experiment on CAKI-1 renal it was 0.252 µM. Besides, the GI50 in the experiment with MALME-3M melanoma was 0.0196 µM; in the experiment with SF-295 CNS it was 0.0237 µM; with CCRF-CEM leukemia it was 0.0282 µM; with ACHN renal, 0.0407 µM. For the same compound, the TGI is 0.688 µM and 0.472 µM in the experiment on EKVX NSCLC; 0.27 µM and 0.088 µM with NCI-H460 lung; 0.564 µM and 0.0728 µM in the experiment on U251 CNS; 1.61 µM and 1.2 µM in the experiment with CAKI-1 renal; 0.268 µM and 0.0635 µM in the experiment with MALME-3M melanoma; 4.64 µM and 0.541 µM in the experiment with ACHN renal.
Consider `O=C(CCN(C(=O)O)S(=O)(=O)c1ccc(NC(=O)c2ccccc2)cc1)Nc1ccccc1`, for which the TGI with A549 NSCLC was greater than 46.4 µM; in the experiment on HT29 colon it was greater than 100 µM; in the experiment on EKVX NSCLC, greater than 100 µM; with NCI-H460 lung, greater than 83.6 µM; in the experiment on U251 CNS, greater than 100 µM; with CAKI-1 renal, greater than 100 µM. In addition, the TGI in the experiment on MALME-3M melanoma is greater than 100 µM; in the experiment on SF-295 CNS it was greater than 100 µM; with CCRF-CEM leukemia it was greater than 81.2 µM; in the experiment with ACHN renal, greater than 100 µM.
